Assay results as given in US20260226071A1, “2, 4-DIANILINOPYRIMIDINE-BASED AURORA-A KINASE SELECTIVE DEGRADATION INDUCING COMPOUNDS” (UPPTHERA, INC., priority 2023, published 2026).

Key:
[1] = test system: NCI-H446 cell line; assay: Cell viability assay for NCI-H446 cell line; format: cell-based; details: Homo sapiens, NCI-H446, 120 h; H446 cells, 5 days culture, EZ-Cytox; read-out: IC50 value (Level)
Source text: The NCI-H446 (hereafter H446) cell lines were provided from American Type Culture Collection (ATCC). For cell culture, RPMI medium 1640 (Gibco, Cat. No. 22400-089; Lot. No. 2522717), FBS (Gibco, Cat. No. 16000-044; Lot. No. 2716756P), Penicillin/Streptomycin (PS) (Gibco, Cat. No. 15140-122; Lot. No. 2585636), 75T cell culture flask (SPL, Cat. No. 70075), 96 well cell culture plate (SPL, Cat. No. 30096), PBS pH 7.4 (Gibco, Cat. No. 10010-023; Lot. No. 2561466), TrypLE™ Express (Gibco, Cat. No. 12605-010; Lot. No. 2492811), counting chamber (hematocytometer) (Hirschmann, Cat. No. 8100204) and 0.4% Trypan Blue solution (DYNEBIO, Cat. No. CBT3710; Lot. No. 20231017) were used. Cells were cultured in RPMI 1640 medium supplemented with 10% FBS and 1% PS and incubated at 37° C., 5% CO2 condition in CO2 incubator (ThermoScientific, Cat. No. 4111).
For experiment, the present compounds were fully dissolved in DMSO (Sigma-Aldrich Cat. No. D2438, Lot. No. RNBL7287.
In each well of 96-well cell culture plate, […] cells of H446 cell lines were seeded in 150 μl of total medium volume. After 24 hours of cell seeding, the present compounds were treated.
The present compounds were each diluted 3-folds from the highest concentration of 1000 nM to the lowest concentration of 0.15 nM. The compound was added to each well to make the total volume of […] and the cells were cultured for 5 days in CO2 incubator (Thermo Fisher Science, Cat. No. 4111).
Thereafter, 20 μl of EZ-Cytox (DOGEN, Cat. NO. EZ-3000, Lot. No. DLS2308) was added to each well and the cells were cultured for 4 hours at the same condition in CO2 incubator. After culture, the absorbance of the sample was measured by setting the wavelength of a plate reader (BMG Labtech, CLARIOstar Plus) to […]. The samples were shaked for 2 minutes in the plate reader before measurement.

[2] = molecular target: T1, Aurora kinase A (AURKA) (Homo sapiens, UniProt O14965); assay: Luciferase assay for AURKA in HeLa LgBit (AURKA-HiBit KI) cell line; format: cell-based; details: HeLa LgBit (AURKA-HiBit KI) cells, measured after 12 hours
T1 construct: endogenous in cells; host or cells: HeLa LgBit (AURKA-HiBit KI), CRISPR/Cas9 knock-in at the endogenous AURKA locus
T1 sequence (O14965 1-403): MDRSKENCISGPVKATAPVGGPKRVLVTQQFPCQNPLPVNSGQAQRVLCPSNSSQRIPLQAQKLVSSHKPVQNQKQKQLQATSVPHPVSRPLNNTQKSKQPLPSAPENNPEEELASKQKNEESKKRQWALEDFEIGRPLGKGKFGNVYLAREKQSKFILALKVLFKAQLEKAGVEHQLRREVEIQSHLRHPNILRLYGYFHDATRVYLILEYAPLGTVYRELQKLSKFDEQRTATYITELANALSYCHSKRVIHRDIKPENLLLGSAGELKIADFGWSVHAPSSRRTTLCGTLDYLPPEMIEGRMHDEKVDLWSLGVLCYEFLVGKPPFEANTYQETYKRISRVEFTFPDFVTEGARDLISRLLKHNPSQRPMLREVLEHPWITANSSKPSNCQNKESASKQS
How it was run: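 HeLa cells stably expressing LgBit, with HiBit knocked in at the C-terminus of endogenous AURKA; 3×10^4 cells seeded, 18 h, then Endurazine substrate 2 h. Compounds tested at 10 nM or 100 nM; luminescence read at 470-480 nm after 12 h as real-time read-out.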

Row | SMILES | IC50 [1] [nM] | luminescence value (Level) ([2]; 10 nM compound) | luminescence value (Level) ([2]; 100 nM compound)
1 | O=C1CCC(c2ccc(N3CCC(CN4CC5(CCN(NC(=O)c6ccc(Nc7ncc(F)c(Nc8ccc(C(=O)Nc9ccccc9Cl)cc8)n7)cc6)CC5)C4)CC3)c(F)c2)C(=O)N1 (stereo not drawn) [Compound 97, N-(2-chlorophenyl)-4-((2-((4-((2-((1-(4-(2,6-dioxopiperidin-3-yl)-2-fluorophenyl)piperidin-4-yl)methyl)-2,7-diazaspiro[3.5]nonan-7-yl)carbamoyl)phenyl)amino)-5-fluoropyrimidin-4-yl)amino)benzamide] | 50 to 100 | B (B is 0.3 to 0.5) | A (A is <0.2)
2 | O=C1CCC(c2ccc(N3CCN(CCCN4CCC(NC(=O)c5ccc(Nc6ncc(F)c(Nc7ccc(C(=O)Nc8ccccc8Cl)cc7)n6)cc5)CC4)CC3)cc2)C(=O)N1 (stereo not drawn) [Compound 71, N-(2-chlorophenyl)-4-((2-((4-((1-(3-(4-(4-(2,6-dioxopiperidin-3-yl)phenyl)piperazin-1-yl)propyl)piperidin-4-yl)carbamoyl)phenyl)amino)-5-fluoropyrimidin-4-yl)amino)benzamide] | 100 to 150 | A (A is <0.3) | A (A is <0.2)
3 | O=C1CCC(c2ccc(N3CCN(CCC4CCN(C(=O)c5ccc(Nc6ncc(F)c(Nc7ccc(C(=O)Nc8ccccc8Cl)cc7)n6)cc5)CC4)CC3)cc2)C(=O)N1 (stereo not drawn) [Compound 110, N-(2-chlorophenyl)-4-[[2-[4-[4-[2-[4-[4-(2,6-dioxo-3-piperidyl)phenyl]piperazin-1-yl]ethyl]piperidine-1-carbonyl]anilino]-5-fluoro-pyrimidin-4-yl]amino]benzamide] | 150 to 200 | C (C is 0.5 to 0.7) | B (B is 0.2 to 0.4)
4 | O=C1CCC(Nc2ccc(N3CCN(CC4CC45CCN(C(=O)c4ccc(Nc6ncc(F)c(Nc7ccc(C(=O)Nc8ccccc8Cl)cc7)n6)cc4)CC5)CC3)cc2)C(=O)N1 (stereo not drawn) [Compound 30, N-(2-chlorophenyl)-4-((2-((4-(1-((4-(4-((2,6-dioxopiperidin-3-yl)amino)phenyl)piperazin-1-yl)methyl)-6-azaspiro[2.5]octane-6-carbonyl)phenyl)amino)-5-fluoropyrimidin-4-yl)amino)benzamide] | < 50 | B (B is 0.3 to 0.5) | A (A is <0.2)
5 | O=C1CCC(c2ccc(N3CCN(CCC4CCN(NC(=O)c5ccc(Nc6ncc(F)c(Nc7ccc(C(=O)Nc8ccccc8Cl)cc7)n6)cc5)CC4)CC3)c(F)c2)C(=O)N1 (stereo not drawn) [Compound 48, N-(2-chlorophenyl)-4-((2-((4-((4-(2-(4-(4-(2,6-dioxopiperidin-3-yl)-2-fluorophenyl)piperazin-1-yl)ethyl)piperidin-1-yl)carbamoyl)phenyl)amino)-5-fluoropyrimidin-4-yl)amino)benzamide] | < 50 | A (A is <0.3) | A (A is <0.2)
6 | CN(CCN1CCN(c2ccc(C3CCC(=O)NC3=O)cc2)CC1)[C@H]1CC[C@H](NC(=O)c2ccc(Nc3ncc(F)c(Nc4ccc(C(=O)Nc5ccccc5Cl)cc4)n3)cc2)CC1 (stereo partly drawn) [Compound 75, N-(2-chlorophenyl)-4-((2-((4-(((1r,4r)-4-((2-(4-(4-(2,6-dioxopiperidin-3-yl)phenyl)piperazin-1-yl)ethyl)(methyl)amino)cyclohexyl)carbamoyl)phenyl)amino)-5-fluoropyrimidin-4-yl)amino)benzamide] | 50 to 100 | A (A is <0.3) | A (A is <0.2)
7 | O=C1CCC(Nc2ccc(N3CCC(CN4CCC5(CC4)CCN(C(=O)c4ccc(Nc6ncc(F)c(Nc7ccc(C(=O)Nc8ccccc8Cl)cc7)n6)cc4)C5)CC3)cc2)C(=O)N1 (stereo not drawn) [Compound 33, N-(2-chlorophenyl)-4-[[2-[4-[8-[[1-[4-[(2,6-dioxo-3-piperidyl)amino]phenyl]-4-piperidyl]methyl]-2,8-diazaspiro[4.5]decane-2-carbonyl]anilino]-5-fluoro-pyrimidin-4-yl]amino]benzamide] | 100 to 150 | B (B is 0.3 to 0.5) | A (A is <0.2)
8 | O=C1CCC(c2ccc(N3CCN(CCN4CCC(COc5ccc(Nc6ncc(F)c(Nc7ccc(C(=O)Nc8ccccc8Cl)cc7)n6)cc5)CC4)CC3)cc2)C(=O)N1 (stereo not drawn) [Compound 99, N-(2-chlorophenyl)-4-((2-((4-((1-(2-(4-(4-(2,6-dioxopiperidin-3-yl)phenyl)piperazin-1-yl)ethyl)piperidin-4-yl)methoxy)phenyl)amino)-5-fluoropyrimidin-4-yl)amino) benzamide] | > 200 | D (D is 0.7 to 0.8) | B (B is 0.2 to 0.4)
9 | O=C1CCC(Nc2ccc(N3CC(N4CCc5cc(NC(=O)c6ccc(Nc7ncc(F)c(Nc8ccc(C(=O)Nc9ccccc9Cl)cc8)n7)cc6)ccc5C4)C3)cc2)C(=O)N1 (stereo not drawn) [Compound 36, N-(2-chlorophenyl)-4-((2-((4-((2-(1-(4-((2,6-dioxopiperidin-3-yl)amino)phenyl)azetidin-3-yl)-1,2,3,4-tetrahydroisoquinolin-6-yl)carbamoyl)phenyl)amino)-5-fluoropyrimidin-4-yl)amino)benzamide] | 100 to 150 | B (B is 0.3 to 0.5) | A (A is <0.2)
10 | O=C1CCC(Nc2ccc(N3CCN(CC[C@H]4CC[C@H](NC(=O)c5ccc(Nc6ncc(F)c(Nc7ccc(C(=O)Nc8ccccc8Cl)cc7)n6)cc5)CC4)CC3)c(F)c2)C(=O)N1 (stereo partly drawn) [Compound 86, N-(2-chlorophenyl)-4-((2-((4-(((1r,4r)-4-(2-(4-(4-((2,6-dioxopiperidin-3-yl)amino)-2-fluorophenyl)piperazin-1-yl)ethyl)cyclohexyl)carbamoyl)phenyl)amino)-5-fluoropyrimidin-4-yl)amino)benzamide] | 50 to 100 | A (A is <0.3) | A (A is <0.2)
11 | O=C1CCC(c2ccc(N3CCN(C[C@H]4CC[C@H](NC(=O)c5ccc(Nc6ncc(F)c(Nc7ccc(C(=O)Nc8ccccc8Cl)cc7)n6)cc5)CC4)CC3)cc2)C(=O)N1 (stereo partly drawn) [Compound 16, N-(2-chlorophenyl)-4-((2-((4-(((1r,4r)-4-((4-(4-(2,6-dioxopiperidin-3-yl)phenyl)piperazin-1-yl)methyl)cyclohexyl)carbamoyl)phenyl)amino)-5-fluoropyrimidin-4-yl)amino)benzamide] | 50 to 100 | B (B is 0.3 to 0.5) | A (A is <0.2)
12 | O=C1CCC(c2ccc(N3CCN(CCC4CCN(NC(=O)c5ccc(Nc6ncc(F)c(Nc7ccccc7)n6)cc5)CC4)CC3)cc2)C(=O)N1 (stereo not drawn) [Compound 58, N-(4-(2-(4-(4-(2,6-dioxopiperidin-3-yl)phenyl)piperazin-1-yl)ethyl)piperidin-1-yl)-4-((5-fluoro-4-(phenylamino)pyrimidin-2-yl)amino)benzamide] | < 50 | A (A is <0.3) | A (A is <0.2)
13 | CN(CC1CCN(c2ccc(C3CCC(=O)NC3=O)cc2)CC1)[C@H]1CC[C@H](NC(=O)c2ccc(Nc3ncc(F)c(Nc4ccc(C(=O)Nc5ccccc5Cl)cc4)n3)cc2)CC1 (stereo partly drawn) [Compound 49, N-(2-chlorophenyl)-4-((2-((4-(((1r,4r)-4-(((1-(4-(2,6-dioxopiperidin-3-yl)phenyl)piperidin-4-yl)methyl)(methyl)amino)cyclohexyl)carbamoyl)phenyl)amino)-5-fluoropyrimidin-4-yl)amino)benzamide] | < 50 | A (A is <0.3) | A (A is <0.2)
